Series [1] concerns EGFR and downstream cascade phosphorylation in A431 cells. In words: Western blot analysis in A431 cells. Format: cell-based. To be noted: 1 h inhibitor then EGF stimulation. The protocol:
and incubated at 37 °C and 5% CO2. On day 2 cells were starved over night with media containing 0.5% FBS to be incubated on day 3 for 1 h with EGFR inhibitors following an additional 30 min of EGF stimulation at 50 ng/mL. The media was discarded and cells were washed once with DPBS
1x. Using 100 μL per well of lysis buffer, cells were then scraped off and lysed while rotating (Stuart Scientific, Staffordshire, UK) for 1 h at 4 °C. […] Supernatant was transferred into new tube and protein concentrations were determined with the Bio-Rad Protein Assay (Bio-Rad Laboratories, Hercules, CA). […]
captured and quantified using a FUJI LAS3000 system with Science Lab 2001 ImageGauge 4.0 software (Fujifilm Medial Systems, Stamford CT, USA). […]
glycerol, 1 mM TCEP, pH 8) on ice for 1 h. We analyzed the aliquots by ESI-MS using an Thermo Fisher Scientific Dionex UltiMate 3000 HPLC system connected to a Thermo Fisher Scientific Velos Pro (2d ion trap). Therefore, 5 μL of sample was injected and separated using a Vydac 214TP C4 5 μm column (150 mm x 2.1 mm) starting at 20% of solvent B for 5 minutes followed by a gradient up to 90% of solvent B over 14 min with a flow rate of 210 μL/min with 0.1% TFA in water as solvent A and 0.1% TFA in MeCN as solvent B. A mass range of 700 to 2000 m/z was scanned and raw data was deconvoluted and analyzed with MagTran software (Z.Q. Zhang, A.G. […]
In general terms: A western blot detects proteins with antibodies after separation by electrophoresis.

The next series deals with YES1 (Homo sapiens, UniProt P07947). In words: SelectScreen kinase profiling, YES1. Format: biochemical. To be noted: mean ± SD of one measurement in duplicates. As for the experimental part: (§1) Kinase profiling of compound 17a at a concentration of 1 µM generated with the SelectScreen® Profiling Service from Life Technologies.
(§2) Figure S2. Kinase profiling of compound 17a, Illustration as waterfall plot. 9 Kinases harboring a Cysteine isostructural to Cys797 in EGFR are highlighted
(§3) Kinase % inhibition Kinase % inhibition […]
(§4) aValues are the mean ± SD of one measurement in duplicates; bKinases harboring a Cysteine isostructural to Cys797 […]
(§5) (1 picture or pasted object on this page, not shown here)

The target in another series is ABL1-wt (Homo sapiens, UniProt P00519). As to the kind of experiment: SelectScreen kinase profiling, ABL1-wt. The class given is biochemical. To be noted: mean ± SD of one measurement in duplicates. The protocol: as §1, §2, §3, §4, §5
The next series deals with ABL2 (Homo sapiens, UniProt P42684). As to the kind of experiment: SelectScreen kinase profiling, ABL2. The class given is biochemical. To be noted: mean ± SD of one measurement in duplicates. As for the experimental part:
as §1, §2, §3, §4, §5

The next series concerns the target EGFR-T790M/L858R (Homo sapiens, UniProt P00533, L858R/T790M). In words: SelectScreen kinase profiling, EGFR-T790M/L858R. Format: biochemical. To be noted: mean ± SD of one measurement in duplicates. As for the experimental part: as §1, §2, §3, §4, §5
The next series concerns the target Her2 (Homo sapiens, UniProt P04626). In words: SelectScreen kinase profiling, Her2. Format: biochemical. To be noted: mean ± SD of one measurement in duplicates. The protocol:
as §1, §2, §3, §4, §5

Series [2] concerns the target T1, EGFR-wt (Homo sapiens, UniProt P00533). In words: SelectScreen kinase profiling, EGFR-wt. Format: biochemical. To be noted: mean ± SD of one measurement in duplicates. As for the experimental part:
as §1, §2, §3, §4, §5

The next series addresses EGFR-L861Q (Homo sapiens, UniProt P00533, L861Q). In words: SelectScreen kinase profiling, EGFR-L861Q. The class given is biochemical. To be noted: mean ± SD of one measurement in duplicates. As for the experimental part: as §1, §2, §3, §4, §5
A further series concerns the target TXK (Homo sapiens, UniProt P42681). As to the kind of experiment: SelectScreen kinase profiling, TXK. The class given is biochemical. To be noted: mean ± SD of one measurement in duplicates. The protocol:
as §1, §2, §3, §4, §5

The target of a further series is EPHA1 (Homo sapiens, UniProt P21709). In words: SelectScreen kinase profiling, EPHA1. Format: biochemical. To be noted: mean ± SD of one measurement in duplicates. As for the experimental part: as §1, §2, §3, §4, §5
Series [3] can be described thus: Plasma protein binding, mouse. To be noted: equilibrium dialysis, 37 °C. The class given is in vitro ADME. The protocol: Assessment of plasma protein binding was measured by equilibrium dialysis by incubating plasma
based determination of final compound concentrations. […]
On the technique in general: In equilibrium dialysis only unbound substance equilibrates across the membrane.

Series [4] has as its target T1, EGFR-wt. As to the kind of experiment: Kinetic characterization (Ki, kinact), EGFR-wt.
The next series deals with EGFR-L858R (Homo sapiens, UniProt P00533, L858R). As to the kind of experiment: Kinetic characterization (Ki, kinact), EGFR-L858R.
Another series addresses EGFR-L858R/T790M (Homo sapiens, UniProt P00533, L858R/T790M). As to the kind of experiment: Kinetic characterization (Ki, kinact), EGFR-L858R/T790M.

T1 sequence (P00533 25-1210): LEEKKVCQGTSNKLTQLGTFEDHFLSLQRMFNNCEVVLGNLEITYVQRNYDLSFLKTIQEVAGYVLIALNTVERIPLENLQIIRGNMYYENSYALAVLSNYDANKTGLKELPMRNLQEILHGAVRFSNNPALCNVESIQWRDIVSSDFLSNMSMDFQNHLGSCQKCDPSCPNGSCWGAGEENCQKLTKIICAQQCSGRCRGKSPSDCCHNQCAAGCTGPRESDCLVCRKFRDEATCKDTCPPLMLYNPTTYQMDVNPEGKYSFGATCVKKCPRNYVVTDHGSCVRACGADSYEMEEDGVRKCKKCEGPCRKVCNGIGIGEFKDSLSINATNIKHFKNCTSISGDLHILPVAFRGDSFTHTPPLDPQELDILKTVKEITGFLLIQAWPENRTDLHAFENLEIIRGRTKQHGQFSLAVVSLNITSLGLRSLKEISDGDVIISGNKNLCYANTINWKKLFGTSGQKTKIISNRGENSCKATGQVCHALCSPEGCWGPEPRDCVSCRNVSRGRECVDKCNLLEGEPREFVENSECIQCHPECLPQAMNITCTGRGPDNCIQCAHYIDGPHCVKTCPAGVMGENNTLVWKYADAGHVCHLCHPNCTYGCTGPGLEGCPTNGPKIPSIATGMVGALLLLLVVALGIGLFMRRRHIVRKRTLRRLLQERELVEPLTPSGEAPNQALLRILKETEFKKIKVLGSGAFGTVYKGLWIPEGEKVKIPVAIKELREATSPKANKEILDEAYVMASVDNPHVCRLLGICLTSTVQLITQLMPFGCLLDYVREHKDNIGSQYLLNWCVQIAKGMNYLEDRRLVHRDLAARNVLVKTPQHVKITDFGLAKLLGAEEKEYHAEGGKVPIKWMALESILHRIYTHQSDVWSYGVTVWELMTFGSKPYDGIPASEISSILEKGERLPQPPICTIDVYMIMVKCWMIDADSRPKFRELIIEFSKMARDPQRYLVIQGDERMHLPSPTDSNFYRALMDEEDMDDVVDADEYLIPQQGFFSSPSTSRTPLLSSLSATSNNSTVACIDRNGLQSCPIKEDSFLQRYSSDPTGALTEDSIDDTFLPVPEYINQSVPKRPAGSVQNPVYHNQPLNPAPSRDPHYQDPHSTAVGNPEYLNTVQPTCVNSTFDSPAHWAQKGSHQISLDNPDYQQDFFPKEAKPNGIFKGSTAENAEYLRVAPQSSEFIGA
EGFR-L858R/T790M, sequence (P00533 25-1210 T790M/L858R): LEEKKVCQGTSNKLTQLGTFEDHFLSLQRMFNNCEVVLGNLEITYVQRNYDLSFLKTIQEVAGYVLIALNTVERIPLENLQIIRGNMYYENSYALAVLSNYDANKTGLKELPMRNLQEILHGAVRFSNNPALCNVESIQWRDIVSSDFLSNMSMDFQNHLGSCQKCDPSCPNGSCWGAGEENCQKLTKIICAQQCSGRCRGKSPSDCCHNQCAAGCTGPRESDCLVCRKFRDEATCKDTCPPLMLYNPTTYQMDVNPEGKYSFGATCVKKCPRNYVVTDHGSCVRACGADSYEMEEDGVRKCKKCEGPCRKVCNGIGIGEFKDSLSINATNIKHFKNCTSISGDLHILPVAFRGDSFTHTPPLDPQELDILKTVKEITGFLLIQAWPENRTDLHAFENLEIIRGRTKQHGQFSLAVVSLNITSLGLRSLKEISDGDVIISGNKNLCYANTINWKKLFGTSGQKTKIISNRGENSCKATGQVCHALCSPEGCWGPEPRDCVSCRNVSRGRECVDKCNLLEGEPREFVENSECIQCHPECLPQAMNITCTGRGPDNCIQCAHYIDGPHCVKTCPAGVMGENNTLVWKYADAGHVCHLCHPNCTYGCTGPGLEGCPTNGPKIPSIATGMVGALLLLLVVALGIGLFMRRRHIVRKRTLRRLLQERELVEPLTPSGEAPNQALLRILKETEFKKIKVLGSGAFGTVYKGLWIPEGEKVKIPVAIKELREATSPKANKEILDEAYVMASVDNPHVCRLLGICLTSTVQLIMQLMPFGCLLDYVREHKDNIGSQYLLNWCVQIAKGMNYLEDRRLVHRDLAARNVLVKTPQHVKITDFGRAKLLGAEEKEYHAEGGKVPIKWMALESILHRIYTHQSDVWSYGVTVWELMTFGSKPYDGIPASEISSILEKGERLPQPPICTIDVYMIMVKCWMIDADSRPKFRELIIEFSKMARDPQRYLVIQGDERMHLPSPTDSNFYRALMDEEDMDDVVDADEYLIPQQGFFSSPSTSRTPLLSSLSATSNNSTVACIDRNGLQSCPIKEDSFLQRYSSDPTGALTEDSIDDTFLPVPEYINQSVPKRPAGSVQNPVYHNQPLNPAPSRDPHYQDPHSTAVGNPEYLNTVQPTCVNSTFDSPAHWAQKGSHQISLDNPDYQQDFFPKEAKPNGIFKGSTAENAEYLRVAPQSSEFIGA
EGFR-L858R, sequence (P00533 25-1210 L858R): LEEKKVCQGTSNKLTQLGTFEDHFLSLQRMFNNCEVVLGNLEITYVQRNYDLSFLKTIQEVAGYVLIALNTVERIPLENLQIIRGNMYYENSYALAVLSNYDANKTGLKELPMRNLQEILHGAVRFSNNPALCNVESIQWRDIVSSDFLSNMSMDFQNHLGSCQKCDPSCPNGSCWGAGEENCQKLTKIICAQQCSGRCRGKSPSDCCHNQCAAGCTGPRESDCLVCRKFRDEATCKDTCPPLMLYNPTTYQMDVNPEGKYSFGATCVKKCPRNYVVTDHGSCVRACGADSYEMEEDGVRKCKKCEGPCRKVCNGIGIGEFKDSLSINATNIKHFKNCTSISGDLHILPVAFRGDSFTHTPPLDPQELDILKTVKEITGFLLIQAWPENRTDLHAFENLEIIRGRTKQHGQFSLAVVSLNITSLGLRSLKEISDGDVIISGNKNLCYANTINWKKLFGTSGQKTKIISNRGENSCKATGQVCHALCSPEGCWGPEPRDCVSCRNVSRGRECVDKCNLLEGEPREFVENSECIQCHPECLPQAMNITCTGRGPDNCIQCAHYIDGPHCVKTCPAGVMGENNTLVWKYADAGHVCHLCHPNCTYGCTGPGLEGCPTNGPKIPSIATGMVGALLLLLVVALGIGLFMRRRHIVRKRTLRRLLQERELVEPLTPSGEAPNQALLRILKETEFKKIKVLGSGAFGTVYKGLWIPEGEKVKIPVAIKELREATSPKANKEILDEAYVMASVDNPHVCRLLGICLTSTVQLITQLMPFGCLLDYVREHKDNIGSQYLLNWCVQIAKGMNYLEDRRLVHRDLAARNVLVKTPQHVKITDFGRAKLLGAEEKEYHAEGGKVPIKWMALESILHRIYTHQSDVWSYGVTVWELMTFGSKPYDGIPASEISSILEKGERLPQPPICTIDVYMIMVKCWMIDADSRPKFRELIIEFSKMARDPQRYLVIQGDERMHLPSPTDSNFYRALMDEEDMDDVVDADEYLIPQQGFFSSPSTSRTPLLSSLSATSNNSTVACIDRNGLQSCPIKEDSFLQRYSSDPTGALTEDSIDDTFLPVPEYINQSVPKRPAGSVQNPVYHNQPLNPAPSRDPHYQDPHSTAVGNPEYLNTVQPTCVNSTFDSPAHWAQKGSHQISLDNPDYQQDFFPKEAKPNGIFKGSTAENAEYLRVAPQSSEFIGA
ABL2, sequence (P42684 whole entry): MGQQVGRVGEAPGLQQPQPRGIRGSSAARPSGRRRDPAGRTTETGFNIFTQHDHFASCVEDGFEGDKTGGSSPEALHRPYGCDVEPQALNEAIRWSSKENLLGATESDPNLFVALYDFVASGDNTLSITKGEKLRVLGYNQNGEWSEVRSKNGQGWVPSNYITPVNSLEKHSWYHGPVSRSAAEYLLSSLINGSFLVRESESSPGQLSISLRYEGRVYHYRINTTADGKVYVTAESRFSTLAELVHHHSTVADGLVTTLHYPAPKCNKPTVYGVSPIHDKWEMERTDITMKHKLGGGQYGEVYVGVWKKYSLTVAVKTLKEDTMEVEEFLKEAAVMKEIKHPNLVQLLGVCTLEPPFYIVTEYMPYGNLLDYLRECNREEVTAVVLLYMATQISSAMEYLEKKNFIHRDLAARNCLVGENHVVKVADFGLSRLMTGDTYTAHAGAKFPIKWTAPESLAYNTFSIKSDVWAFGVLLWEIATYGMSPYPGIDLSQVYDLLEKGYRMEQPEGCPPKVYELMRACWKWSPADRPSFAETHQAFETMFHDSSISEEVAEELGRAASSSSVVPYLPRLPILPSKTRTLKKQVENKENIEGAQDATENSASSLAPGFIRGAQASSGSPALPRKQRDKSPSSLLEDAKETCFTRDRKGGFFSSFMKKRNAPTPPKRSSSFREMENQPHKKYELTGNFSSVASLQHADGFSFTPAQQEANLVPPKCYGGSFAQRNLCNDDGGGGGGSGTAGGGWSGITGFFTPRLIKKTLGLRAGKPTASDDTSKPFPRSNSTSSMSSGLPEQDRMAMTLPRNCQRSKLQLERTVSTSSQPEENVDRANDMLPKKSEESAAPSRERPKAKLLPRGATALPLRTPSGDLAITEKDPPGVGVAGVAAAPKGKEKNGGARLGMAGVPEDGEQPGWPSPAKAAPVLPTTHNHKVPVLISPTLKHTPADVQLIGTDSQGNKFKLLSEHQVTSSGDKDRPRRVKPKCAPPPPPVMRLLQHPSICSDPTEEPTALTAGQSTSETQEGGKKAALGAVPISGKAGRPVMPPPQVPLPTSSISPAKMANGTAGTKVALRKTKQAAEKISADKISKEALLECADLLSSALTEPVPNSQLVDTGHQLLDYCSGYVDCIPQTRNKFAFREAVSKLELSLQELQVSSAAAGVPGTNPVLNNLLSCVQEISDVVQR

Regarding `C=CC(=O)Nc1cccc(-c2c(-c3ccc(CN4CCN(C)CC4)cc3)[nH]c3ncnc(OC)c23)c1` [Compound 17a], the “concentration at which phosphorylation of EGFR and downstream proteins was reduced” value in series [1] is “about 1 μM”. For the same compound, the inhibition (in general, how much of the control response was suppressed) at 1 µM against YES1 was 93 ± 1%; against ABL1-wt it was 89%; on ABL2, 86%; against EGFR-T790M/L858R it was 88 ± 1%; against Her2, 82 ± 6%; against EGFR-wt [2] it was 97 ± 2%. Also, the inhibition at 1 µM on EGFR-L861Q was found to be 96 ± 2%; on TXK, 77%; at EPHA1 it was 72 ± 2%.

Turning to `C=CC(=O)Nc1cccc(-c2c(-c3ccc(N4CCN(C)CC4)cc3)[nH]c3ncnc(OCC(C)C)c23)c1` [Compound 19h], the free fraction (fraction unbound) (in general, the share of the substance not bound to proteins or other matrix) at 6 h, 5 µM in [3] was 0.003. Besides, on EGFR-wt [4], the inhibition constant Ki (as a rule, a dissociation constant, usually derived from enzyme kinetics or from competition with a known ligand) was 0.4 ± 0.1 nM; the inactivation rate constant (kinact) – broadly, the maximal first-order rate at which the target is inactivated – was 0.000833 s⁻¹; the kinact/KI (as a rule, the second-order rate constant of inactivation) was 1.98e+06 ± 220000 M⁻¹ s⁻¹. In addition, at EGFR-L858R, the Ki was 0.5 ± 0.1 nM, the kinact was 0.00467 s⁻¹ and the kinact/KI came out at 8.78e+06 ± 650000 M⁻¹ s⁻¹. At EGFR-L858R/T790M, the Ki is 0.4 ± 0.1 nM, the kinact was 0.00283 s⁻¹ and the kinact/KI turned out to be 8.08e+06 ± 770000 M⁻¹ s⁻¹.
